The subject of one assay is KB. Description: Cytotoxicity against human KB cells. In kind it is functional. As to conditions: read-out: ED50 (the source's name).
Another assay relates to P388. Description: Cytotoxicity against mouse P388 cells. In kind it is functional. The conditions noted are these: read-out: ED50 (the source's name).

In brackets after ≈: the same amount, converted by molar mass.

EC50 data for three compounds are collected here from ChEMBL document CHEMBL1147286, “7-O-methylhorminone and other cytotoxic diterpene quinones from Lepechinia bullata” (1989).

Take `CC(C)C1=C(O)C(=O)C2=C(C1=O)[C@H](O)C[C@H]1C(C)(C)CCC[C@]21C` [HORMINONE]: the figures for the EC50 with KB and in the assay with P388 were 20.2 mg/L (≈ 60.8 µM) and 4.6 mg/L (≈ 13.8 µM), respectively.
The like results for `CO[C@@H]1C[C@H]2C(C)(C)CCC[C@]2(C)C2=C1C(=O)C(C(C)C)=C(O)C2=O` were, in that order, 13 mg/L (≈ 37.5 µM) and 4.8 mg/L (≈ 13.9 µM).
Turning to `CC(C)C1=C(O)C(=O)C2=C(C=C[C@H]3C(C)(C)CCC[C@]23C)C1=O`, the values for the EC50 in the assay with KB and in the assay on P388 were 5.7 mg/L (≈ 18.1 µM) and 1.6 mg/L (≈ 5.09 µM), respectively.
